Measured values taken from US20250011296A1, “MODULATORS OF MOLECULAR TARGETS EXPRESSED IN METABOLIC AND INFLAMMATORY DISORDERS” (Ohio State Innovation Foundation, priority 2021, published 2025).
Entries after “also recorded” stand apart in the source; their conditions may differ. Read-outs that look alike come from different tables or passages of the source.

Key:
[1] = molecular target: T1, NFκB (Homo sapiens, UniProt Q04206); experiment: NFκB assay (EZ-Detect Transcription Factor Assay kit; TNF-α-treated HeLa cells, nuclear extracts); assay type: cell-based
T1 construct: endogenous in cells; host or cells: HeLa cells (ATCC), nuclear extract
T1 sequence (Q04206 whole entry): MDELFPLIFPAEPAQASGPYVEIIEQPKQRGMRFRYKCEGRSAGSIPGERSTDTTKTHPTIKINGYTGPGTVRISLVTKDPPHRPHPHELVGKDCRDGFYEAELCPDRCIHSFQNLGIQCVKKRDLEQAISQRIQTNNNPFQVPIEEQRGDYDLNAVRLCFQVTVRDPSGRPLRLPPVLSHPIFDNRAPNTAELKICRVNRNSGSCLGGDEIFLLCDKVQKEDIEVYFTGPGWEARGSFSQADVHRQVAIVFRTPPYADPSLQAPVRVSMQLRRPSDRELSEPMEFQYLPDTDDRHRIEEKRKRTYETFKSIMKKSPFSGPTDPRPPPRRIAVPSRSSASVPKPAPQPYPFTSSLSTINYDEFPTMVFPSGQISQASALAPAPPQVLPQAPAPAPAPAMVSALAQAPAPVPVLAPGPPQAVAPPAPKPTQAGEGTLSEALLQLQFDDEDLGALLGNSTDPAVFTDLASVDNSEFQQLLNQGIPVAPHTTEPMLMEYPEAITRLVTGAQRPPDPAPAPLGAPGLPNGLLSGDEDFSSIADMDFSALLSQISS
Experimental: To assess the ability of natural product extracts and compounds to inhibit the specific binding of activated NFκB transcription factor to the biotinylated consensus sequence, the EZ-Detect™ Transcription Factor Assay kit (Pierce Biotechnology) was used according to the kit manual and established protocol. HeLa cells (ATCC) were treated with each test sample and TNF-α, nuclear extracts harvested using the NE-PER kit (Pierce Biotechnology), and protein content equilibrated using the Pierce BCA Protein Assay kit (Pierce Biotechnology). Specific binding was detected through quantification of chemiluminescent signal in a plate reader (FLUOstar Optima, BMG Labtechnologies GmbH, Inc.).

[2] = molecular target: T2, PPAR-γ (Homo sapiens, UniProt P37231); experiment: PPAR-γ ELISA assay (PPAR-α,γ,δ Complete Transcription Factor Assay Kit; CCD-112CoN or Hela cells, nuclear extracts); assay type: cell-based
T2 construct: endogenous in cells; host or cells: CCD-112CoN normal colon cells or HeLa cells (ATCC), nuclear extract
T2 sequence (P37231 1-505): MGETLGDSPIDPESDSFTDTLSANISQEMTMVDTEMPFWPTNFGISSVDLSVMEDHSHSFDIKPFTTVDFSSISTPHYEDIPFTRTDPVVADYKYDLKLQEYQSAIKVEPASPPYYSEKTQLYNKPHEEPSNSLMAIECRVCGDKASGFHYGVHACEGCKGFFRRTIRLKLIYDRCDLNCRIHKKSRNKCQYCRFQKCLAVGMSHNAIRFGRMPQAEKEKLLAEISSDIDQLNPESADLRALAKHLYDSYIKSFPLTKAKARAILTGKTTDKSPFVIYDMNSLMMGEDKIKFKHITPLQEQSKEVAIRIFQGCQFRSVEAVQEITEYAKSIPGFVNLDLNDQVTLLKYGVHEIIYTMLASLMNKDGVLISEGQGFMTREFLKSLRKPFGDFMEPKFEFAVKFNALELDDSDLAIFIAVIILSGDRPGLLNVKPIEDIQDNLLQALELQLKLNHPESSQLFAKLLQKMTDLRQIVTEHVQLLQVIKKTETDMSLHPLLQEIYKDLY
Experimental: To evaluate the ability of natural product extracts and compounds to induce specific binding of PPAR-γ transcription factor in nuclear extracts to immunosorbed peroxisome proliferator response element, the PPAR-α,γ,δ Complete Transcription Factor Assay Kit (Cayman Chemical Company) was used according to the kit protocol. 303 CCD-112CoN normal colon cells or Hela cells (ATCC) were treated with mace extracts or isolated compounds for 24 h, nuclear extracts were harvested using the NE-PER kit (Pierce Biotechnology), and protein content equilibrated using the Pierce BCA Protein Assay kit (Pierce Biotechnology). Specific binding was detected through quantification of absorptivity at 630 nm in a BioTek uQuant microplate reader (BioTek Instruments, Inc.). […] Licarin A derivatives 45-48 were screened through the panel of in vitro assays to evaluate their potential as antidiabetic compound leads. […] Methods for the assay were as described above.

[3] = test system: PPAR-γ expression; experiment: Larval diabetic zebrafish assay, Western blot of PPAR-γ; assay type: in vivo; conditions: diabetic zebrafish larvae, 10 μM
Experimental: Western blot analysis of zebrafish expression levels for glycated hemoglobin, metabolic enzymes, and molecular targets NFκB and PPAR-γ was performed to evaluate potential lead improvement and to discover possible mechanisms of action.
Wild-type zebrafish were sorted into 24-well microplates with 10 fish per well for a four-phase treatment cycle. At 72 hpf, type 2 diabetes was induced by administering 0.5 mg/mL alloxan in fish water for percutaneous absorption. […] At 78 hpf, the incubation solution was changed to 10 mg/ml D-glucose for 30 minutes, followed by a phase-four rinse in fresh system w Following the four-phase treatment cycle, zebrafish treatment groups were snap frozen in microcentrifuge tubes on dry ice, stored overnight at −80° C., thawed, and homogenized with 2 μL PBS per animal. Following centrifugation (60 minutes at 4° C. and 17,000 rpm), protein content of the homogenate supernatant was determined using the Pierce BCA Protein Assay kit (Pierce Biotechnology). Homogenates were analyzed by Western blot with equal amounts of total protein (20 μg) in each sample and using 4×LDS loading buffer (NuPAGE Life Technologies).
(§1) Electrophoresis was performed with NuPAGE MES SDS Running Buffer and using the XCell SureLock Mini-Cell Electrophoresis System (Life Technologies). Proteins separated on the gel were transferred to a PVDF membrane using TBST buffer. The blots were blocked in 3% BSA in TBST and subsequently probed overnight with primary antibodies (1:1000 in 1% BSA in TBST) against each target of interest. Following TBST rinses, secondary HRP-conjugated antibodies (1:2000) were applied to the membrane for 60 minutes. The HRP conjugated antibodies were detected using SuperSignal West Femto chemiluminescent substrate (Pierce Biotechnology) and immunoblot images were captured using the luminometer and Lumi Analyst 3.0 software.
(§2) Band densities were determined using ImageJ Gel Analysis to determine expression levels of each protein of interest. Expression levels of HbA1C, PPAR-γ, and NFκB were organized into a bar graphs (FIG. 5) with band densities calculated in comparison to the housekeeping gene β-actin, normalized to the untreated diabetic group (B) of zebrafish. […].

[4] = test system: HbA1C (glycated hemoglobin) expression; experiment: Larval diabetic zebrafish assay, Western blot of HbA1C; assay type: in vivo; conditions: duplicate Western blot (FIG. 7), diabetic zebrafish larvae, 10 μM
Experimental: (§3) Following isolation, derivatization, and analysis of compounds 41-48 through the in vitro panel of assays, the mace natural products and licarin A derivatives were investigated in the larval diabetic zebrafish assay for potential antidiabetic activity. Western blot analysis of zebrafish expression levels for glycated hemoglobin, metabolic enzymes, and molecular targets NFκB and PPAR-γ was performed to evaluate potential lead improvement and to discover possible mechanisms of action.
(§4) Wild-type zebrafish were sorted into 24-well microplates with 10 fish per well for a four-phase treatment cycle. At 72 hpf, type 2 diabetes was induced by administering 0.5 mg/mL alloxan in fish water for percutaneous absorption. After three hours of alloxan treatment, phase two of the treatment cycle was initiated by administering 10 μM doses of natural product compounds 41-43 (FIG. 4) or derivatives 45-48 (FIG. 6) with 0.01% DMSO in system water. At 78 hpf, the incubation solution was changed to 10 mg/ml D-glucose for 30 minutes, followed by a phase-four rinse in fresh system w Following the four-phase treatment cycle, zebrafish treatment groups were snap frozen in microcentrifuge tubes on dry ice, stored overnight at −80° C., thawed, and homogenized with 2 μL PBS per animal. Following centrifugation (60 minutes at 4° C. and 17,000 rpm), protein content of the homogenate supernatant was determined using the Pierce BCA Protein Assay kit (Pierce Biotechnology). Homogenates were analyzed by Western blot with equal amounts of total protein (20 μg) in each sample and using 4×LDS loading buffer (NuPAGE Life Technologies). The immunoblot samples were heated at 95° C. for 5 minutes and loaded onto NuPAGE Bis-Tris 4-12% gradient SDS-PAGE gels.
as §1, §2

[5] = test system: PEPCK expression; experiment: Larval diabetic zebrafish assay, Western blot of PEPCK; assay type: in vivo; conditions: duplicate Western blot (FIG. 10), diabetic zebrafish larvae, 10 μM
Experimental: as §3, §4, §1, §2

[6] = test system: NFκB p65 expression; experiment: Larval diabetic zebrafish assay, Western blot of NFκB p65; assay type: in vivo; conditions: duplicate Western blot (FIG. 9), diabetic zebrafish larvae, 10 μM
Experimental: as §3
Wild-type zebrafish were sorted into 24-well microplates with 10 fish per well for a four-phase treatment cycle. […] Following centrifugation (60 minutes at 4° C. and 17,000 rpm), protein content of the homogenate supernatant was determined using the Pierce BCA Protein Assay kit (Pierce Biotechnology). Homogenates were analyzed by Western blot with equal amounts of total protein (20 μg) in each sample and using 4×LDS loading buffer (NuPAGE Life Technologies). […]
Electrophoresis was performed with NuPAGE MES SDS Running Buffer and using the XCell SureLock Mini-Cell Electrophoresis System (Life Technologies). […] The HRP conjugated antibodies were detected using SuperSignal West Femto chemiluminescent substrate (Pierce Biotechnology) and immunoblot images were captured using the luminometer and Lumi Analyst 3.0 software. […]

[7] = test system: GLUT-4 expression; experiment: Larval diabetic zebrafish assay, Western blot of GLUT-4; assay type: in vivo; conditions: duplicate Western blot (FIG. 11), diabetic zebrafish larvae, 10 μM
Experimental: as §3
Wild-type zebrafish were sorted into 24-well microplates with 10 fish per well for a four-phase treatment cycle. At 72 hpf, type 2 diabetes was induced by administering 0.5 mg/mL alloxan in fish water for percutaneous absorption. After three hours of alloxan treatment, phase two of the treatment cycle was initiated by administering 10 μM doses of natural product compounds 41-43 (FIG. 4) or derivatives 45-48 (FIG. 6) with 0.01% DMSO in system water. […] Following centrifugation (60 minutes at 4° C. and 17,000 rpm), protein content of the homogenate supernatant was determined using the Pierce BCA Protein Assay kit (Pierce Biotechnology). Homogenates were analyzed by Western blot with equal amounts of total protein (20 μg) in each sample and using 4×LDS loading buffer (NuPAGE Life Technologies). […]
Electrophoresis was performed with NuPAGE MES SDS Running Buffer and using the XCell SureLock Mini-Cell Electrophoresis System (Life Technologies). […] The HRP conjugated antibodies were detected using SuperSignal West Femto chemiluminescent substrate (Pierce Biotechnology) and immunoblot images were captured using the luminometer and Lumi Analyst 3.0 software.
as §2

[8] = Table 13, tested at 50, 5, 0.5 and 0.05 μg/mL
[9] = Table 20 summary, read-out: NFκBIC50
[10] = Table 19, licarin A derivatives at 50 μg/mL in Hela cells

Row | SMILES | IC50 [1, 8] [µM] | IC50 [1, 9] [µM] | IC50 ([1]; in vitro NFκB assay) [µM] | PPAR-γ % activation ([2]; Table 14, isolates at 50 μg/mL) [%] | PPAR-γ % activation ([2]; Table 20 summary, 50 μg/mL) [%] | PPAR-γ expression (band density) ([3]; preliminary Western blot (FIG. 4/5)) | PPAR-γ % activation [2, 10] [%] | HbA1C expression (band density) [4] | PEPCK expression (band density) [5] | PPAR-γ activity in vitro ([2]; preliminary screening, 50 μg/mL) | NFκB p65 expression (band density) [6] | NFκB inhibitory activity in vitro ([1]; HeLa cells) | PPAR-γ expression (band density) ([3]; duplicate Western blot (FIG. 8)) | GLUT-4 expression (band density) [7]
1 | C=CCc1cc(OC)c(O[C@H](C)[C@@H](O)c2ccc3c(c2)OCO3)c(OC)c1 [Compound 43, erythro-8,4′-oxyneolign-8′-ene] | 0.0644 | 0.0644 | 0.0644 | <50 | <50 | greater PPAR-γ expression that 41 | – | – | – | – | – | – | – | –
2 | C/C=C/c1ccc(O[C@H](C)[C@@H](OC(C)=O)c2ccc3c(c2)OCO3)c(OC)c1 [Compound 44, maceneolignan J] | 0.0001 | 0.0001 | 0.0001 | – | – | – | – | – | – | – | – | – | – | –
3 | C/C=C/c1cc(OC)c2c(c1)[C@H](C)[C@@H](c1ccc(OC(C)C)c(OC)c1)O2 [Compound 45, isopropoxy-licarin A] | – | – | – | – | 57 | – | 57 | did not reduce HbA1C expression | indicated a return to normoglycemia | – | – | – | – | –
4 | COc1cc([C@H]2Oc3c(OC)cc(C=O)cc3[C@@H]2C)ccc1OC(C)C [Compound 46, isopropoxy-licarin A carbaldehyde] | – | – | – | – | 29 | – | 29 | most effective test samples for decreasing HbA1C; also recorded: significant reduction of HbA1C expression | indicated a return to normoglycemia | no significant PPAR-γ activity in vitro | lower levels of NFκB | – | – | –
5 | C/C=C/c1cc(OC)c2c(c1)[C@H](C)[C@@H](c1ccc(OC(=O)OCC)c(OC)c1)O2 [Compound 47, licarin A ethyl carbonate] | – | – | – | – | 0 | – | 0 | did not reduce HbA1C expression | retained low PEPCK expression | – | – | only weak NFκB inhibitory activity | performed surprisingly well | significantly increased capacities for glucose uptake
6 | CCOC(=O)Oc1ccc([C@H]2Oc3c(OC)cc(C=O)cc3[C@@H]2C)cc1OC [Compound 48, licarin A formyl ethyl carbonate] | – | – | – | – | 0 | – | 0 | did not reduce HbA1C expression | retained low PEPCK expression | – | lower levels of NFκB | – | – | significantly increased capacities for glucose uptake
